How the values were obtained:
[1] = xn = mol fraction of the nth substance listed; conditions: 101 kPa, Liquid; for electrical conductivity: Alternating current cell with electrodes; for mass density: Vibrating tube method
[2] = refractive index (Na D-line) (dimensionless); xn = mol fraction of the nth substance listed; conditions: 101 kPa, Liquid, Standard Abbe refractometry

NC(CO)(CO)CO [2-amino-2-(hydroxymethyl)-1,3-propanediol] + O
Conditions | electrical conductivity, [1] [S/m] | mass density, [1] [kg/m3] | refractive index, [2]
293.15 K, x1 = 0.01 | 0.0158 | 1022.2 | 1.34226
293.15 K, x1 = 0.02 | 0.0179 | 1036.6 | 1.35089
293.15 K, x1 = 0.03 | 0.0189 | 1049.4 | 1.35884
293.15 K, x1 = 0.04 | 0.0193 | 1056.4 | 1.37118
293.15 K, x1 = 0.05 | 0.0205 | 1073.8 | 1.37635
293.15 K, x1 = 0.06 | 0.0205 | 1079.9 | 1.3797
293.15 K, x1 = 0.07 | 0.018 | 1090 | 1.38587
298.15 K, x1 = 0.01 | – | – | 1.34173
298.15 K, x1 = 0.02 | – | – | 1.35029
298.15 K, x1 = 0.03 | – | – | 1.35819
298.15 K, x1 = 0.04 | – | – | 1.37048
298.15 K, x1 = 0.05 | – | – | 1.37565
298.15 K, x1 = 0.06 | – | – | 1.37896
298.15 K, x1 = 0.07 | – | – | 1.38509
303.15 K, x1 = 0.01 | 0.0195 | 1019.5 | 1.34111
303.15 K, x1 = 0.02 | 0.0229 | 1033.6 | 1.34961
303.15 K, x1 = 0.03 | 0.0247 | 1046.2 | 1.35746
303.15 K, x1 = 0.04 | 0.0253 | 1053.3 | 1.3697
303.15 K, x1 = 0.05 | 0.0271 | 1070.3 | 1.37485
303.15 K, x1 = 0.06 | 0.0271 | 1076.2 | 1.37816
303.15 K, x1 = 0.07 | 0.0235 | 1086.3 | 1.38425
308.15 K, x1 = 0.01 | – | – | 1.34042
308.15 K, x1 = 0.02 | – | – | 1.34889
308.15 K, x1 = 0.03 | – | – | 1.35667
308.15 K, x1 = 0.04 | – | – | 1.36888
308.15 K, x1 = 0.05 | – | – | 1.37406
308.15 K, x1 = 0.06 | – | – | 1.37728
308.15 K, x1 = 0.07 | – | – | 1.38334
313.15 K, x1 = 0.01 | 0.0241 | 1016 | 1.33972
313.15 K, x1 = 0.02 | 0.0287 | 1029.9 | 1.34821
313.15 K, x1 = 0.03 | 0.031 | 1042.4 | 1.35596
313.15 K, x1 = 0.04 | 0.0318 | 1049.3 | 1.36815
313.15 K, x1 = 0.05 | 0.0341 | 1066.1 | 1.37347
313.15 K, x1 = 0.06 | 0.0341 | 1071.8 | 1.37673
313.15 K, x1 = 0.07 | 0.03 | 1081.8 | 1.38271
318.15 K, x1 = 0.01 | – | – | 1.33899
318.15 K, x1 = 0.02 | – | – | 1.34742
318.15 K, x1 = 0.03 | – | – | 1.3552
318.15 K, x1 = 0.04 | – | – | 1.36739
318.15 K, x1 = 0.05 | – | – | 1.37247
318.15 K, x1 = 0.06 | – | – | 1.37581
318.15 K, x1 = 0.07 | – | – | 1.38182
323.15 K, x1 = 0.01 | 0.0287 | 1011.6 | 1.3381
323.15 K, x1 = 0.02 | 0.0346 | 1025.5 | 1.34668
323.15 K, x1 = 0.03 | 0.0373 | 1037.8 | 1.35447
323.15 K, x1 = 0.04 | 0.0385 | 1044.7 | 1.36673
323.15 K, x1 = 0.05 | 0.0411 | 1061.3 | 1.37176
323.15 K, x1 = 0.06 | 0.0411 | 1067 | 1.37507
323.15 K, x1 = 0.07 | 0.0367 | 1076.9 | 1.38124
328.15 K, x1 = 0.01 | – | – | 1.33723
328.15 K, x1 = 0.02 | – | – | 1.34603
328.15 K, x1 = 0.03 | – | – | 1.35389
328.15 K, x1 = 0.04 | – | – | 1.36626
328.15 K, x1 = 0.05 | – | – | 1.37115
328.15 K, x1 = 0.06 | – | – | 1.37453
328.15 K, x1 = 0.07 | – | – | 1.38089
333.15 K, x1 = 0.01 | 0.0333 | 1006 | –
333.15 K, x1 = 0.02 | 0.0403 | 1020 | –
333.15 K, x1 = 0.03 | 0.0435 | 1032.7 | –
333.15 K, x1 = 0.04 | 0.0452 | 1039.6 | –
333.15 K, x1 = 0.05 | 0.0482 | 1056 | –
333.15 K, x1 = 0.06 | 0.0482 | 1061.7 | –
333.15 K, x1 = 0.07 | 0.0435 | 1071.4 | –
343.15 K, x1 = 0.01 | 0.0378 | 998.9 | –
343.15 K, x1 = 0.02 | 0.046 | 1013.2 | –
343.15 K, x1 = 0.03 | 0.0497 | 1027 | –
343.15 K, x1 = 0.04 | 0.0518 | 1033.9 | –
343.15 K, x1 = 0.05 | 0.0552 | 1050.2 | –
343.15 K, x1 = 0.06 | 0.0552 | 1055.9 | –
343.15 K, x1 = 0.07 | 0.0503 | 1065.6 | –
353.15 K, x1 = 0.01 | 0.0423 | 989.9 | –
353.15 K, x1 = 0.02 | 0.0514 | 1004.9 | –
353.15 K, x1 = 0.03 | 0.0555 | 1020.8 | –
353.15 K, x1 = 0.04 | 0.0579 | 1027.6 | –
353.15 K, x1 = 0.05 | 0.0619 | 1044 | –
353.15 K, x1 = 0.06 | 0.0619 | 1049.5 | –
353.15 K, x1 = 0.07 | 0.0567 | 1059.2 | –

Reference: the NIST ThermoML archive (doi:10.1016/j.jct.2010.08.016)
